Data published in ChEMBL document CHEMBL4052783, “Effects of novel triple-stage antimalarial ionic liquids on lipid membrane models” (Bioorg Med Chem Lett, 2017).

Columns and labels:
Lipid bilayer [1] = assay: Binding affinity to DPPC membrane assessed as main transition temperature at 1:10 compound/DPPC molar ratio by differential scanning calorimetric method (reference value: 41.5 degreeC)
Lipid bilayer [2] = assay: Binding affinity to DPPC membrane assessed as change in enthalpy for main transition temperature at 1:10 compound/DPPC molar ratio by differential scanning calorimetric method (reference value: 7.22 kJ/mol)
Lipid bilayer [3] = assay: Binding affinity to DPPG membrane assessed as main transition temperature at 1:10 compound/DPPG molar ratio by differential scanning calorimetric method (reference value: 40.3 degreeC)
Lipid bilayer [4] = assay: Binding affinity to DPPG membrane assessed as change in enthalpy for main transition temperature at 1:10 compound/DPPG molar ratio by differential scanning calorimetric method (reference value: 8.7 KJ/mol)
Lipid bilayer [5] = assay: Binding affinity to DPPG membrane assessed as pre-transition temperature at 1:10 compound/DPPG molar ratio by differential scanning calorimetric method (reference value: 34.5 degreeC)
Lipid bilayer [6] = assay: Binding affinity to DPPG membrane assessed as change in enthalpy for pre-transition temperature at 1:10 compound/DPPG molar ratio by differential scanning calorimetric method (reference value: 0.74 KJ/mol)

Row | Structure (SMILES) | Tm (Lipid bilayer [1]) [°C] | deltaH (Lipid bilayer [2]) [kcal/mol] | Tm (Lipid bilayer [3]) [°C] | deltaH (Lipid bilayer [4]) [kcal/mol] | Tm (Lipid bilayer [5]) [°C] | deltaH (Lipid bilayer [6]) [kcal/mol]
1 | COc1cc(NC(C)CCCN)c2ncccc2c1.O=C(O)/C=C/c1ccc(Cl)cc1 (stereo not given) | 40.7 | 2.29 | 38.1 | 2.23 |  | 
2 | COc1cc(NC(C)CCCNC(=O)/C=C/c2ccc(Cl)cc2)c2ncccc2c1 (stereo not given) | 40.1 | 2.05 | 39 | 2.46 | 32.7 | 0.143
3 | CC(C)c1ccc(/C=C/C(=O)O)cc1.COc1cc(NC(C)CCCN)c2ncccc2c1 (stereo not given) | 40.2 | 2.22 | 38.3 | 2.35 |  | 
4 | COc1cc(NC(C)CCCNC(=O)/C=C/c2ccc(C(C)C)cc2)c2ncccc2c1 (stereo not given) | 40.1 | 1.89 | 39 | 2.22 | 32.4 | 0.103
